Source: BindingDB's records for doi:10.1016/j.bmc.2019.01.035 (Florida A&M University, 2019)

Target: Sigma non-opioid intracellular receptor 1 (Homo sapiens, UniProt Q99720)
Assay: Displacement [3H]-Pentazocine from sigma 1 receptor (unknown origin) expressed in HEK cell membranes

Sigma non-opioid intracellular receptor 1, sequence (Q99720 whole entry): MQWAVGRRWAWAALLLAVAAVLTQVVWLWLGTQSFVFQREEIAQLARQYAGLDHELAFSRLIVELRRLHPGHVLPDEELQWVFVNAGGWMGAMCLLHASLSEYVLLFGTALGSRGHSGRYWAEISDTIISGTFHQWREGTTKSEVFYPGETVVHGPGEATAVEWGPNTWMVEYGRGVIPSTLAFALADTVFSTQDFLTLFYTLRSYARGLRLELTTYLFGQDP

O=C(CCCN1CCCN(c2ccccn2)CC1)c1ccc(F)cc1
Ki: 63 nM
